Source: publication PMC11048566, “The Development of a Regulator of Human Serine Racemase for N-Methyl-D-aspartate Function” (Biomedicines, 2024)
Like-named read-outs stand apart in the source and are kept apart here.

Target: T1, human serine racemase (hSR) (Homo sapiens, UniProt Q9GZT4)
T1 construct: 6xHis (C); made in house; host or cells: E. coli BL21 (pET42b-hSR)
T1 sequence (Q9GZT4 1-340): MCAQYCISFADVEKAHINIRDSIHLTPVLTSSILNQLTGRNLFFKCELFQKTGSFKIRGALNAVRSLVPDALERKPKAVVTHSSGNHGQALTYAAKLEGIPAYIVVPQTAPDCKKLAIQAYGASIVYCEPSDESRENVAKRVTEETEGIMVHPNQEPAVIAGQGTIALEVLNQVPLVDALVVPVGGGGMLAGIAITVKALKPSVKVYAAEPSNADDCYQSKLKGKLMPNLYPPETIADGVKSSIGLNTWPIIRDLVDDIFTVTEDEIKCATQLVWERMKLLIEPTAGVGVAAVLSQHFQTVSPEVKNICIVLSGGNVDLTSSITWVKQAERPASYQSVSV
Assay: Two-step enzymatic assay of hSR racemization (hSR, then DAAO/HRP/Amplex Red)
Assay type: biochemical
Details: 0.25 mM ATP
Method: This assay was designed by the formation of D-serine by hSR and the oxidation of D-serine by D-amino acid oxidase (DAAO) and horseradish peroxidase (HRP) with the peroxidase substrate Amplex Red^TM (10-acetyl-3,7-dihydroxyphenoxazine) (Thermo Fisher Scientific, Lagoas Park, Porto Salvo, Portugal). The hSR activity assay reaction was carried out in 100 mM HEPES buffer, pH 8.0, containing 2.4 µg of hSR protein, 50 µM PLP, 1 mM MgCl2, 0.25 mM ATP, 400 mM L-serine, and 2 times serially diluted α12G (8 mM to 0.2 µM). Compound-free wells were used as blank controls in the assay. All reactions were performed in duplicates. The reaction mixtures were incubated at 37 °C for 4 h. The reaction was stopped by heating the reaction mixtures at 95 °C for 10 min and storage at 4 °C. A reaction mixture for the second-step enzymatic assay, DAAO assay, with a final volume of 100 µL was made with a 10 µL sample from hSR assay, 45 µM FAD, 10 units of HRP, 60 ng DAAO, 10 mM lead acetate, 10 mM Amplex Red^TM, and 100 mM Tris HCl (pH = 8.5). Lead acetate was used to conjugate α12G as the latter would inhibit the DAAO function in the fluorometric assay, leading to an […] of the effects of α12G on hSR. The fluorescence was detected by the TECAN Infinite 200 Microplate Reader (GMI, MN, USA). The racemization percentage was calculated as follows: racemization % = (Fsample, 20 min − Fsample, 0 min)/(Fblank, 20 min − Fblank, 0 min) × 100%. […] The two-step enzymatic assay described in Section 2.3 was designed by the formation of D-serine by hSR and the consequent oxidation of D-serine by DAAO. The inhibition of DAAO, which also degrades D-serine, by α12G will lead to overestimating the effects of racemization by hSR. […] Therefore, lead acetate was applied to conjugate α12G for the determination of racemization. […] On the contrary, when the concentration of α12G is higher than 2 mM, the racemization activity of hSR is inhibited.

O=C(Oc1cc(C(=O)Oc2cc(C(=O)O[C@H]3OC[C@@H](OC(=O)c4cc(O)c(O)c(OC(=O)c5cc(O)c(O)c(OC(=O)c6cc(O)c(O)c(O)c6)c5)c4)[C@H](OC(=O)c4cc(O)c(O)c(OC(=O)c5cc(O)c(O)c(OC(=O)c6cc(O)c(O)c(O)c6)c5)c4)[C@H]3OC(=O)c3cc(O)c(O)c(OC(=O)c4cc(O)c(O)c(OC(=O)c5cc(O)c(O)c(O)c5)c4)c3)cc(O)c2O)cc(O)c1O)c1cc(O)c(O)c(O)c1 [α12G, (2R,3R,4S,5R)-tetrahydro-2H-pyran-2,3,4,5-tetrayl tetrakis(3-((3,4-dihydroxy-5-((3,4,5-trihydroxybenzoyl)oxy)benzoyl)ox)-4,5-dihydroxybenzoate)]
Concentration above which hSR racemization activity is inhibited: higher than 2 mM | EC100 (concentration of highest racemization activity) (400 mM L-serine, lead acetate in second step): 31.25 µM | Enhancement of hSR racemization (maximum vs compound-free): about 8 fold | EC50 (falling limb of inverted U-shape curve, read-out: EC50 on hSR racemization (progressively inhibiting racemization)): 221 µM | EC50 (rising limb of inverted U-shape curve, read-out: EC50 on hSR racemization (favoring racemization)): 8.82 µM
